# Assay results published in patent publication US8399489B2, “Antibacterial piperdine derivatives” (Astrazeneca AB, priority 2005, dated 2013).
# Assays:
# Assay type in all cases: cell-based
# Streptococcus pneumoniae = test: Bacterial susceptibility testing in liquid media (MIC), Streptococcus pneumoniae; conditions: lowest concentration reducing growth by 80% or more, 37 degrees C., 24 hrs, read-out: MIC against Streptococcus pneumoniae
# Method: (§1) Compounds were tested for antimicrobial activity by susceptibility testing in liquid media. Compounds were dissolved in dimethylsulfoxide and tested in 10 doubling dilutions in the susceptibility assays. The organisms used in the assay were grown overnight on suitable agar media and then suspended in a liquid medium appropriate for the growth of the organism. The suspension was a 0.5 McFarland and a further 1 in 10 dilution was made into the same liquid medium to prepare the final organism suspension in 100 μL. Plates were incubated under appropriate conditions at 37 degrees C. for 24 hrs prior to reading. The Minimum Inhibitory Concentration was determined as the lowest drug concentration able to reduce growth by 80% or more.
# MCA445 = test: Bacterial susceptibility testing in liquid media (MIC), MCA445; conditions: strain MCA445; lowest concentration reducing growth by 80% or more; 37 degrees C., 24 hrs
# Method: as §1
# HIN446 = test: Bacterial susceptibility testing in liquid media (MIC), HIN446; conditions: strain HIN446; lowest concentration reducing growth by 80% or more; 37 degrees C., 24 hrs
# Method: as §1
# SPN548 = test: Bacterial susceptibility testing in liquid media (MIC), SPN548; conditions: strain SPN548; lowest concentration reducing growth by 80% or more; 37 degrees C., 24 hrs
# Method: as §1
# SAU516 = test: Bacterial susceptibility testing in liquid media (MIC), SAU516; conditions: strain SAU516; lowest concentration reducing growth by 80% or more; 37 degrees C., 24 hrs
# Method: as §1
# EFM073 = test: Bacterial susceptibility testing in liquid media (MIC), EFM073; conditions: strain EFM073; lowest concentration reducing growth by 80% or more; 37 degrees C., 24 hrs
# Method: as §1
Structure (SMILES),MIC (Streptococcus pneumoniae),MIC MCA445 (MCA445),MIC HIN446 (HIN446),MIC SPN548 (SPN548),MIC SAU516 (SAU516),MIC EFM073 (EFM073)
"CO[C@@H]1CN(c2cc(C(=O)O)nc(Cl)n2)CC[C@@H]1NC(=O)c1[nH]c(C)c(Cl)c1Cl (racemic) [Example 48, Cis(±)2-Chloro-6-(4-{[(3,4-dichloro-5-methyl-1H-pyrrol-2-yl)carbonyl]amino}-3-methoxypiperidin-1-yl)pyrimidine-4-carboxylic acid]",0.13 µg/mL,,,,,
"CO[C@@H]1CN(c2cc(C(=O)O)nc3ccccc23)CC[C@@H]1NC(=O)c1cc(Cl)c(C)[nH]1 (racemic) [Example 60, Cis(±)4-(4-{[(4-chloro-5-methyl-1H-pyrrol-2-yl)carbonyl]amino}-3-methoxypiperidin-1-yl)quinoline-2-carboxylic acid]",,0.25 µg/mL,4 µg/mL,2 µg/mL,2 µg/mL,8 µg/mL
"CO[C@@H]1CN(c2cc(C(=O)O)ncc2Cl)CC[C@@H]1NC(=O)c1[nH]c(C)c(Cl)c1Cl (racemic) [Example 315, Cis(±)-5-chloro-4-(4-{[(3,4-dichloro-5-methyl-1H-pyrrol-2-yl)carbonyl]amino}-3-methoxypiperidin-1-yl)pyridine-2-carboxylic acid]",,0.13 µg/mL,2 µg/mL,0.5 µg/mL,4 µg/mL,4 µg/mL
CO[C@H]1CN(c2nc3cccc(C(=O)O)c3s2)CC[C@H]1NC(=O)c1[nH]c(C)c(Cl)c1Cl [Example 294],,0.001 µg/mL,0.031 µg/mL,0.0039 µg/mL,0.031 µg/mL,0.016 µg/mL
"Cc1[nH]c(C(=O)N[C@@H]2CCN(c3cc(C(=O)O)ccn3)C[C@@H]2F)c(Cl)c1Cl [Example 345, 2-((3S,4R)-4-{[(3,4-dichloro-5-methyl-1H-pyrrol-2-yl)carbonyl]amino}-3-fluoropiperidin-1-yl)isonicotinic acid]",,0.031 µg/mL,0.25 µg/mL,0.03 µg/mL,0.5 µg/mL,0.13 µg/mL
